The values below come from patent US5276054A, “Substituted hexahydrobenzopyran derivatives as angiotensin II antagonists” (Merck & Co., Inc., priority 1992, dated 1994).

For assay [1], the target named is T1, angiotensin II receptor, site 2 (AT-2 receptor) (Rattus norvegicus, UniProt P35351).
T1 construct: Adrenal membranes for the receptor assay were readied first by placing cleaned, whole adrenal glands in microcentrifuge tubes; from tissue; host or cells: rat adrenal glands (whole), membranes
T1 sequence (P35351 1-363): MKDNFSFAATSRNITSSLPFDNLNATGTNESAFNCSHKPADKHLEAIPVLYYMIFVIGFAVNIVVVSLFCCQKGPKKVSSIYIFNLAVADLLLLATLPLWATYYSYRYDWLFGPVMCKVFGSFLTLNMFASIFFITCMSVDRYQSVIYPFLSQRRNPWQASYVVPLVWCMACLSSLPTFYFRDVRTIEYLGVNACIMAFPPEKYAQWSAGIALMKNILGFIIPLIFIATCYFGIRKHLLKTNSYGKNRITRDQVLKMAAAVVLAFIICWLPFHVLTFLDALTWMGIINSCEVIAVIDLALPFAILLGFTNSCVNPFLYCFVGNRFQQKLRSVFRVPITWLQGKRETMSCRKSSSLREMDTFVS
Kind of assay: Receptor assay using rat adrenal gland preparation (125I-Angiotensin II binding), site 2. From the text:
Angiotensin II (AII) is a powerful arterial vasoconstrictor, and it exerts its action by interacting with specific receptors present on cell membranes. The compounds of the present invention are competitive antagonists of AII at receptor sites. The usefulness of compounds as AII antagonists may be determined from the results of certain receptor binding assays. The initial assay is that using rat adrenal glands and the results of this assay are described herein.
Receptor assay using rat adrenal gland preparation
Adrenal membranes for the receptor assay were readied first by placing cleaned, whole adrenal glands in microcentrifuge tubes (20 glands per tube), and freezing and storing under liquid nitrogen. As needed, a microcentrifuge tube of adrenal glands was homogenized in 20 ml 50 mM Tris-HCl pH 7.7 and centrifuged at 20,000 rpm for 15 minutes at 4° C. […]
For the assay, the adrenal membrane preparation in one vial was resuspended in 30 ml of 100 mM Tris-HCl pH 7.4 with 5 mM MgCl2, 0.2% bovine serum albumin and 0.2 mg/ml bacitracin. […] The vials are counted with a gamma counter for one minute and percent inhibition determined from counts/min (CPM) as follows: [formula] The IC50 is determined by plotting percent inhibition v. concentration of compound tested.

The target of assay [2] is T2, angiotensin II receptor, site 1 (Oryctolagus cuniculus, UniProt P34976).
T2 construct: tissue Pel-Freeze Biologicals; host or cells: rabbit aorta, membranes
T2 sequence (P34976 1-359): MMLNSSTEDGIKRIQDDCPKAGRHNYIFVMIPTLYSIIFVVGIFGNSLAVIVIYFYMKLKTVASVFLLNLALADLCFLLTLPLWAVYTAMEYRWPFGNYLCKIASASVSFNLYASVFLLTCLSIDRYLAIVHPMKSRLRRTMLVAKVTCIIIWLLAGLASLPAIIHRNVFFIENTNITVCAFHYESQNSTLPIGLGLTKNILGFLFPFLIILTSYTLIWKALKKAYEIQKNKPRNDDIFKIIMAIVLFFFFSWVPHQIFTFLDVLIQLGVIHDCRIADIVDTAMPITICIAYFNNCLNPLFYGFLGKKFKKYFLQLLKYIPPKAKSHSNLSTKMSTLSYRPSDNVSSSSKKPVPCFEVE
Kind of assay: Receptor binding assay using rabbit aortae membrane preparation (125I-Sar1 Ile8-angiotensin II), site 1. The note with it: rabbit aortae membranes, 37° C., 90 minutes. Here is the method: On positive results with rat adrenal gland assay, assays using rabbit aorta may be employed.
Receptor binding assay using rabbit aortae membrane preparation
Three frozen rabbit aortae (obtained from Pel-Freeze Biologicals) were suspended in 5 mM Tris-0.25M Sucrose, pH 7.4 buffer (50 mL) homogenized, and then centifuged. The mixture was filtered through a cheesecloth and the supernatant was centrifuged for 30 minutes at 20,000 rpm at 4° C. The pellet thus obtained was resuspended in 30 mL of 50 mM Tris-5 mM MgCl2 buffer containing 0.2% Bovine Serum Albumin and 0.2 mg/mL Bacitracin and the suspension was used for 100 assay tubes. Samples tested for screening were done in duplicate. To the membrane preparation (0.25 mL) there was added ^125 I-Sar^1 Ile^8 -angiotensin II [obtained from New England Nuclear] ([…]; 20,000 cpm) with or without the test sample and the mixture was incubated at 37° C. for 90 minutes. The mixture was then diluted with ice-cold 50 mM Tris-0.9% NaCl, pH 7.4 (4 mL) and filtered through a glass fiber filter (GF/B Whatman 2.4" diameter). The filter was soaked in scintillation cocktail (10 mL) and counted for radioactivity using Packard 2660 Tricarb liquid scintillation counter. […]

Each structure is given as a SMILES string. “And” between values parts separate entries of the source, which are not always exact repeats. Equal entries are not always repeated.

In the case of `CCCCCC1=C(C=O)C2OC(C)(C)C(O)CC23OC3C1=O` (stereo not drawn) [Compound A], the 50% inhibitory concentration (IC50) (in general, the concentration that inhibits the measured activity by half) in assay [1] (rat adrenal membranes, 37° C., 90 minutes, site 2) was 1.62 to 3.24 µM and 1 to 2 µM; in assay [2] it was 25.9 µM. The “antagonist activity at AT-2 receptor sites” value in assay [1] (statement in words) is “antagonist activity at AT-2 receptor sites”.
